± gives the expanded uncertainty stated by the source.
Conditions: 283.15 K, Liquid, Vibrating tube method

CCCCCCCC(=O)OCC(COC(=O)CCCCCCC)(COC(=O)CCCCCCC)COC(=O)CCCCCCC [pentaerythritol tetraoctanoate]
Conditions | mass density [kg/m3]
26897 kPa | 984.8 ± 1.2
26929 kPa | 984.9 ± 1.2
26966 kPa | 984.8 ± 1.2
26997 kPa | 984.8 ± 1.2
27034 kPa | 984.8 ± 1.2
27066 kPa | 984.8 ± 1.2
27098 kPa | 984.9 ± 1.2
27129 kPa | 984.9 ± 1.2
27167 kPa | 984.9 ± 1.2
27199 kPa | 985 ± 1.2
27237 kPa | 985.1 ± 1.2
27270 kPa | 984.9 ± 1.2
27302 kPa | 985.1 ± 1.2
27340 kPa | 985.1 ± 1.2
27372 kPa | 985 ± 1.2
27404 kPa | 985 ± 1.2
27437 kPa | 985 ± 1.2
27476 kPa | 985.2 ± 1.2
27508 kPa | 985.2 ± 1.2
27546 kPa | 985.1 ± 1.2
27579 kPa | 985.1 ± 1.2
27612 kPa | 985.2 ± 1.2
27651 kPa | 985.2 ± 1.2
27685 kPa | 985.1 ± 1.2
27718 kPa | 985.1 ± 1.2
27752 kPa | 985.1 ± 1.2
27792 kPa | 985.2 ± 1.3
27825 kPa | 985.3 ± 1.2
27859 kPa | 985.3 ± 1.2
27899 kPa | 985.3 ± 1.2
27932 kPa | 985.4 ± 1.2
27972 kPa | 985.3 ± 1.2
28007 kPa | 985.3 ± 1.2
28040 kPa | 985.5 ± 1.2
28074 kPa | 985.5 ± 1.2
28116 kPa | 985.4 ± 1.2
28150 kPa | 985.5 ± 1.2
28185 kPa | 985.4 ± 1.2
28226 kPa | 985.4 ± 1.2
28260 kPa | 985.5 ± 1.2
28302 kPa | 985.5 ± 1.2
28336 kPa | 985.5 ± 1.2
28371 kPa | 985.5 ± 1.2
28406 kPa | 985.5 ± 1.2
28448 kPa | 985.5 ± 1.2
28483 kPa | 985.6 ± 1.2
28519 kPa | 985.5 ± 1.3
28561 kPa | 985.6 ± 1.2
28596 kPa | 985.7 ± 1.2
28632 kPa | 985.7 ± 1.2
28676 kPa | 985.6 ± 1.2
28712 kPa | 985.7 ± 1.2
28748 kPa | 985.8 ± 1.2
28784 kPa | 985.6 ± 1.2
28827 kPa | 985.7 ± 1.2
28863 kPa | 985.8 ± 1.2
28900 kPa | 985.8 ± 1.2
28943 kPa | 985.7 ± 1.2
28980 kPa | 985.8 ± 1.2
29017 kPa | 985.8 ± 1.2
29061 kPa | 985.9 ± 1.2
29097 kPa | 985.9 ± 1.2
29135 kPa | 985.9 ± 1.2
29173 kPa | 985.9 ± 1.2
29217 kPa | 985.8 ± 1.2
29255 kPa | 985.9 ± 1.2
29293 kPa | 986 ± 1.2
29338 kPa | 986 ± 1.2
29375 kPa | 986 ± 1.2
29413 kPa | 986.1 ± 1.2
29458 kPa | 986 ± 1.2
29496 kPa | 986 ± 1.2
29534 kPa | 986.1 ± 1.2
29579 kPa | 986.1 ± 1.2

From the NIST ThermoML archive (doi:10.1021/je060271a)
